Literature values, collected in patent publication US8765197B2, “Extract of herbal and composition containing the same” (Dong-A-Pharm, Co., Ltd., priority 2006, dated 2014).

Tested on: functional dyspepsia

With COc1cc(N)c(Cl)cc1C(=O)NC1CCN(CCCOc2ccc(F)cc2)CC1OC (centres unmarked) [cisapride] as the compound, how does the “cases in which effective” value (administered for 4 to 8 weeks) read?
Its value is “more than 70%”.

What about the response rate (functional dyspepsia, placebo 27-53%) of the same compound?
The response rate was 50-82%.
